Reference: US20060035810A1, “Regulation of ins(3456)p4 signalling by a reversible kinase phosphatase and methods and compositions related thereto” (priority 2002, published 2006)

What was measured:
[1] = test system: insulin granules in pancreatic β-cells; assay: CCCP-mediated de-acidification of insulin granules, LSG fluorescence; format: cell-based, mouse; details: DIDS blockade of Cl− conductance, CCCP
Experimental: FIG. 7A, Representative confocal images of LSG fluorescence immediately before (zero) and 60 s after perfusion of cells with intracellular buffer supplemented with 100 μM of the protonophore, CCCP, in the absence or presence of 10 μM Ins(3,4,5,6)P4. FIG. 7B, Representative time-courses for changes in LSG-fluorescence ([F/F0] as % of zero time) immediately after establishing a standard whole-cell configuration as in panel A, with intracellular medium (containing 0.4 μM [Ca^2+]free except where “no calcium” is indicated; see Methods) plus 100 μM CCCP, together with either 0 (“control”) or 10 μM Ins(3,4,5,6)P4. FIG. 7C, Mean (±SE) fluorescence changes (n=4-6), during the 60 s that followed establishment of the standard whole-cell configuration, for cells perfused with intracellular medium supplemented with inositol phosphates as indicated at the base of the bar graph ([…]).
The inositol phosphates used in this study were all purchased from CellSignals Inc (Lexington, Ky.). Insulin granule pH were monitored by combining the patch-clamp technique with confocal imaging. Pancreatic β-cells, isolated and cultured on glass coverslips for 2-24 h, were voltage clamped at −70 mV, as previously described (B9). LysoSensor-Green™ DND-189 (1 μM; Molecular Probes, Leiden, The Netherlands) was added during the last 30 min of cell culture and was also included in the extracellular buffer (B9) that continuously perfused the experimental chamber. All LSG experiments were performed at 20° C. to prevent exocytosis that otherwise interfered with the optical measurements (15). LSG fluorescence was excited using the 488 nm-line of a Zeiss 510 confocal microscope. The emitted light was collected with a 63×/1.3 NA oil objective and a >505 nm filter. Laser scanning was performed with low pixel resolution (128×128) and with 6 s intervals to minimize photo-bleaching. After gigaseal formation, it was ascertained that LSG fluorescence was stable for at least 30 s before the experiment commenced. The intracellular electrode solution contained: 125 mM K-glutamate, 10 mM KCl, 1 0 mM NaCl, 1 mM MgCl2, 5 mM HEPES, 3 mM Mg-ATP, 0.1 mM cAMP, 10 mM EGTA and 7 mM CaCl2 (˜0.4 μM free [Ca^2+]I; pH 7.2 with KOH). In some experiments, marked “no calcium”, there was no added Ca^2+, and the concentration of EGTA was 50 μM. Whole-cell capacitance measurements (at 33° C.) were made with the cells clamped at −70 mV, and the standard whole-cell configuration was established at t=0. Capacitance recordings were made using an EPC-7 patch-clamp amplifier equipped with the software Pulse (version 8.4 and later) and the X-chart extension (HEKA Elektronik, Lambrecht/Pfalz, Germany) (B9). […]

[2] = test system: insulin granules in pancreatic β-cells; assay: Insulin granule acidification, LSG fluorescence with patch-clamp and confocal imaging; format: cell-based, mouse; details: DIDS 100 μM in bath solution 30 min prior to patching
Experimental: FIG. 6. Ins(3,4,5,6)P4 inhibits acidification of insulin granules in pancreatic β-cells. FIG. 6A, Representative time-courses for intragranular acidification, monitored by increased fluorescence of LSG before and after establishment of the standard whole-cell configuration (see arrow) and the effect of perfusion of intracellular medium (containing 0.4 μM [Ca^2+]free except where “no calcium” is indicated; see Methods) plus either 0 (“control”), 1 or 10 μM Ins(3,4,5,6)P4. FIG. 6B, Mean (±SE) fluorescence changes (n-5-11), during the 60 s that followed establishment of the standard whole-cell configuration, for cells perfused with inositol phosphates as indicated at the base of the bar graph. Where indicated, DIDS (100 μM) were added to the bath solution 30 min prior to patching the cells. Statistical significance was evaluated by Student's unpaired t-test (* P<0.01).
The inositol phosphates used in this study were all purchased from CellSignals Inc (Lexington, Ky.). Insulin granule pH were monitored by combining the patch-clamp technique with confocal imaging. Pancreatic β-cells, isolated and cultured on glass coverslips for 2-24 h, were voltage clamped at −70 mV, as previously described (B9). LysoSensor-Green™ DND-189 (1 μM; Molecular Probes, Leiden, The Netherlands) was added during the last 30 min of cell culture and was also included in the extracellular buffer (B9) that continuously perfused the experimental chamber. All LSG experiments were performed at 20° C. to prevent exocytosis that otherwise interfered with the optical measurements (15). LSG fluorescence was excited using the 488 nm-line of a Zeiss 510 confocal microscope. The emitted light was collected with a 63×/1.3 NA oil objective and a >505 nm filter. Laser scanning was performed with low pixel resolution (128×128) and with 6 s intervals to minimize photo-bleaching. After gigaseal formation, it was ascertained that LSG fluorescence was stable for at least 30 s before the experiment commenced. The intracellular electrode solution contained: 125 mM K-glutamate, 10 mM KCl, 1 0 mM NaCl, 1 mM MgCl2, 5 mM HEPES, 3 mM Mg-ATP, 0.1 mM cAMP, 10 mM EGTA and 7 mM CaCl2 (˜0.4 μM free [Ca^2+]I; pH 7.2 with KOH). In some experiments, marked “no calcium”, there was no added Ca^2+, and the concentration of EGTA was 50 μM. Whole-cell capacitance measurements (at 33° C.) were made with the cells clamped at −70 mV, and the standard whole-cell configuration was established at t=0. Capacitance recordings were made using an EPC-7 patch-clamp amplifier equipped with the software Pulse (version 8.4 and later) and the X-chart extension (HEKA Elektronik, Lambrecht/Pfalz, Germany) (B9).

[3] = molecular target: T1, Ins(1,3,4,5,6)P5 1-phosphatase activity of Ins(3,4,5,6)P4 kinase (Homo sapiens, UniProt Q13572); assay: Inositol phosphate phosphatase activity assay with ADP (HPLC); format: biochemical; details: 5 mM ADP, trace amounts of substrate
T1 construct: made in house; host or cells: E. coli
T1 sequence (Q13572 1-414): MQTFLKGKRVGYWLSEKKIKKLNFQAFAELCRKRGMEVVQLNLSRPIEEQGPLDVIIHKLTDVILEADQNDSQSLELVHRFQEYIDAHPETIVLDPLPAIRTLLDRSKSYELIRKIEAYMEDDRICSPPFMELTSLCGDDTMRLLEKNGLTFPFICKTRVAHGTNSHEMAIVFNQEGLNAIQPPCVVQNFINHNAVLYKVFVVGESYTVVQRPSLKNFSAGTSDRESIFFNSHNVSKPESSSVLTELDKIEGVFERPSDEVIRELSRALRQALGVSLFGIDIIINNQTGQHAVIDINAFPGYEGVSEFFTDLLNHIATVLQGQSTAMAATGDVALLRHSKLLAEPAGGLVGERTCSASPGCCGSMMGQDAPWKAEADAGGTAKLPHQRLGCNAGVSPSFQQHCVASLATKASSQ
Experimental: Ins(3,4,5,6)P4 kinase (0.4 μg) was incubated for 30 min in 100 μl phosphatase assay buffer (see Methods) either with (closed circles) or without (open circles) 5 mM ADP plus trace-amounts of either [^3H]Ins(1,3,4,5,6)P5 (panel A) [^3H]Ins(1,3,4,6)P4 (panel B), or [^3H]Ins(1,3,4,5)P4 (panel C). Samples were analyzed by HPLC (see Methods). The elution positions of Ins(1,3,4)P3 and Ins(3,4,5,6)P4 were verified with genuine standards. The elution positions of Ins(1,3,4,6)P4 (106 min, panel B) and of Ins(1,3,4,5)P4 (110 min, panel C) exclude these as products of InsP5 dephosphorylation (panel A).
Additional incubations were performed with 5 μM [^3H]Ins(1,3,4)P3 (approx. 1200 d.p.m.) plus either no Ins(1,3,4,5,6)P5 (open circles) or 5 μM non-radiolabeled Ins(1,3,4,5,6)P5 (closed circles); these reactions were assayed by HPLC (Synchropak Q100 column) and the InsP4 region of the chromatogram is shown in Panel B.
(§1) Inositol phosphate phosphatase activity was assayed in buffer containing 100 mM KCl, 20 mM HEPES pH 7.2, 5 mM ADP, 6 mM MgSO4, 0.3 mg/ml bovine serum albumin. Assays were acid-quenched, neutralized and analyzed by HPLC using a Synchropak Q100 columm (Caffrey et al., “Expanding Coincident Signaling by PTEN through its Inositol 1,3,4,5,6-Pentakisphosphate 3-phosphatase Activity,” FEBS Lett 499: 6-10 (2001)); 1 ml fractions were collected for 70 min., followed by 0.5 ml fractions. Inositol phosphate kinase activity was assayed in buffer containing 100 mM KCl, 20 mM HEPES pH 7.2, 5 mM ATP, 10 mM phosphocreatine, 6 mM MgSO4, 10 μg/ml creatine phosphokinase (Calbiochem), 0.3 mg/ml bovine serum albumin. Some assays were acid-quenched and analyzed by HPLC using a Synchropak Q100 column. Other reactions were heat-inactivated (95° C., 3 min) and analyzed by a metal dye detection, HPLC method (Mayr, “A novel metal-dye detection sysytem permits picomolar-range h.p.l.c. analysis of inositol polyphosphates from non-radioactively labelled cell or tissue specimens,” Biochem J 254: 585-591 (1988); Adelt et al., “Enzyme-assisted total synthesis of the optical antipodes D-myo-inositol 3,4,5-trisphosphate and D-myo-inositol 1,5,6-trisphosphate: aspects of their structure-activity relationship to biologically active inositol phosphates,” J Med Chem 42: 1262-1273 (1999)).

[4] = molecular target: T2, Recombinant human Ins(3,4,5,6)P4 1-kinase (Homo sapiens, UniProt Q13572); assay: Inositol phosphate kinase activity assay (HPLC); format: biochemical
T2 construct: made in house; host or cells: E. coli
T2 sequence (Q13572 1-414): T1 sequence (Q13572 1-414)
Experimental: as §1
Activity of 3.4 ug of inositol 3,4,5,6-tetrakisphosphate 1-kinase was assayed for 4 hr. at 37° C. in 200 μl buffer containing 100 mM KCl, 20 mM HEPES pH 7.2, 5 mM ATP, 10 mM phosphocreatine, 6 mM MgSO4, 10 μg/ml creatine phosphokinase (Calbiochem), 0.3 mg/ml bovine serum albumin and 50 uM of either inositol 3,4,5-trisphosphate, 4,5,6-trisphosphate or inositol 3,5,6-trisphosphate. Reactions were heat-inactivated (95° C., 3 min) and analyzed by a metal dye detection, HPLC method.
[…] (Manassas, Va.) supplied the CFPAC-1 cells and T84 cells. Recombinant human Ins(3,4,5,6)P4 1-kinase was expressed in E. coli and purified (Yang et al., “Multitasking in Signal Transduction by a Promiscuous Human Ins(3,4,5,6)P4 1-Kinase/Ins(1,3,4)P3 5/6-Kinase,” Biochem J 351: 551-555 (2000)). Non-radiolabeled Ins(1,3,4)P3 and Ins(1,3,4,5,6)P5 were purchased from CellSignals Inc (Lexington, Ky.). The details of the synthesis of non-radiolabeled Ins(3,4,5)P3, Ins(3,5,6)P3, Ins(4,5,6)P3 and Ins(3,4,6)P3 (as sodium salts) will be published separately by S.-K. C. Ins(3,4,6)P3 was also prepared by a different synthetic route (Mills et al., “Synthesis of D- and L-myo-inositol 1,4,6-trisphosphate, regioisomers of a ubiquitous second messenger,” J Org Chem 61: 8980-8987 (1996)). [^3H]Ins(1,3,4,5,6)P5 was prepared as previously described (Zhang et al., “The Transcriptional Regulator, Arg82, is a Hybrid Kinase with both Monophosphoinositol- and Diphosphoinositol-Polyphosphate Synthase Activity,” FEBS Lett 494: 208-212 (2001)). [^3H]Ins(1,3,4)P3 was prepared from [^3H]Ins(1,3,4,5)P4 (New England Nuclear) using recombinant Ins(1,4,5)P3/Ins(1,3,4,5)P4 5-phosphatase (Erneux et al., “Production of recombinant human brain type I inositol-1,4,5-trisphosphate 5-phosphatase in Escherichia coli. Lack of phosphorylation by protein kinase C,” Eur J Biochem 234: 598-602 (1995)). [^3H]Ins(1,3,4)P3 was converted to [^3H]Ins(1,3,4,6)P4 using Ins(1,3,4)P3 6-kinase activity (Yang et al., “Multitasking in Signal Transduction by a Promiscuous Human Ins(3,4,5,6)P4 1-Kinase/Ins(1,3,4)P3 5/6-Kinase,” Biochem J 351: 551-555 (2000)). [^3H]Ins(3,4)P2 was prepared by alkaline phosphatase attack on [^3H]Ins(1,3,4)P3 in 20 mM glycine (pH 9.0 with KOH). [^3H]Ins(1,4)P2 was purchased from New England Nuclear.

SMILES | effect on loss of H+ from the granules [1] | effect on granule acidification [2] | product of ADP-dependent dephosphorylation [3] | whether the enzyme phosphorylates the inositol phosphate [4]
O=S(=O)(O)c1cc(N=C=S)ccc1C=Cc1ccc(N=C=S)cc1S(=O)(=O)O [DIDS, 4,4′-diisothiocyanostilbene-2,2′-disulfonic acid] | inhibited | inhibited |  | 
O=P(O)(O)O[C@@H]1C(O)[C@H](OP(=O)(O)O)[C@@H](OP(=O)(O)O)C(O)[C@H]1OP(=O)(O)O (stereo partly shown) [Ins(1,3,4,6)P4] |  |  | dephosphorylated to Ins(1,3,4)P3 | does not phosphorylate
